From ChEMBL document CHEMBL1201862, “PubChem BioAssay data set” (2004)
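Protocol summary: plate cells (96-well), add compound at 5 concentrations, incubate 48 h, interpolate endpoints linearly. GI50 is the concentration that inhibits growth by half.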 The source made the active and inactive calls. Cut-off read from the data, not from the text of the source: active = GI50 up to about 1.1 µM and inactive = higher.

Columns and labels:
Test in all cases: NCI tumour cell line growth inhibition, 48 h
[1] = test system: 786-0
[2] = test system: A498
[3] = test system: A549
[4] = test system: ACHN
[5] = test system: CAKI-1
[6] = test system: CCRF-CEM
[7] = test system: DLD-1
[8] = test system: DMS-114
[9] = test system: DMS-273
[10] = test system: EKVX
[11] = test system: HCC 2998
[12] = test system: HCT-116
[13] = test system: HCT-15
[14] = test system: HL-60
[15] = test system: HOP-18
[16] = test system: HOP-62
[17] = test system: HOP-92
[18] = test system: HT-29
[19] = test system: IGROV-1
[20] = test system: K562
[21] = test system: KM-20L2
[22] = test system: KM12
[23] = test system: LOX IMVI
[24] = test system: LXFL 529
[25] = test system: M14
[26] = test system: M19-MEL
[27] = test system: MOLT-4
[28] = test system: Malme-3M
[29] = test system: NCI-H226
[30] = test system: NCI-H23
[31] = test system: NCI-H460
[32] = test system: NCI-H522
[33] = test system: OVCAR-3
[34] = test system: OVCAR-4
[35] = test system: OVCAR-5
[36] = test system: OVCAR-8
[37] = test system: RPMI-8226
[38] = test system: SF-268
[39] = test system: SF-295
[40] = test system: SF-539
[41] = test system: SK-MEL-28
[42] = test system: SK-MEL-2
[43] = test system: SK-MEL-5
[44] = test system: SK-OV-3
[45] = test system: SNB-19
[46] = test system: SNB-75
[47] = test system: SNB-78
[48] = test system: SW-620
[49] = test system: TK-10
[50] = test system: UACC-257
[51] = test system: UACC-62
[52] = test system: UO-31
[53] = test system: COLO 205
[54] = test system: SN12C
[55] = test system: SR
[56] = test system: U-251

SMILES: CN(N=O)C(=O)ON1C(=O)CCC1=O
- GI50 [1]: > 100 µM (inactive)
- GI50 [2]: > 100 µM (inactive)
- GI50 [3]: > 100 µM (inactive)
- GI50 [4]: > 100 µM (inactive)
- GI50 [5]: > 100 µM (inactive)
- GI50 [6]: > 100 µM (inactive)
- GI50 [7]: > 100 µM (inactive)
- GI50 [8]: > 100 µM (inactive)
- GI50 [9]: > 100 µM (inactive)
- GI50 [10]: > 100 µM (inactive)
- GI50 [11]: > 100 µM (inactive)
- GI50 [12]: > 100 µM (inactive)
- GI50 [13]: > 100 µM
- GI50 [14]: > 100 µM (inactive)
- GI50 [15]: > 100 µM (inactive)
- GI50 [16]: > 100 µM (inactive)
- GI50 [17]: > 100 µM (inactive)
- GI50 [18]: > 100 µM (inactive)
- GI50 [19]: > 100 µM (inactive)
- GI50 [20]: > 100 µM (inactive)
- GI50 [21]: > 100 µM (inactive)
- GI50 [22]: > 100 µM (inactive)
- GI50 [23]: > 100 µM (inactive)
- GI50 [24]: > 100 µM (inactive)
- GI50 [25]: > 100 µM (inactive)
- GI50 [26]: > 100 µM (inactive)
- GI50 [27]: > 100 µM (inactive)
- GI50 [28]: > 100 µM (inactive)
- GI50 [29]: > 100 µM (inactive)
- GI50 [30]: > 100 µM (inactive)
- GI50 [31]: 47.8 µM (inactive)
- GI50 [32]: > 100 µM (inactive)
- GI50 [33]: > 100 µM (inactive)
- GI50 [34]: > 100 µM (inactive)
- GI50 [35]: > 100 µM (inactive)
- GI50 [36]: > 100 µM (inactive)
- GI50 [37]: > 100 µM (inactive)
- GI50 [38]: > 100 µM (inactive)
- GI50 [39]: > 10 µM (inactive)
- GI50 [40]: > 100 µM (inactive)
- GI50 [41]: > 100 µM (inactive)
- GI50 [42]: > 100 µM (inactive)
- GI50 [43]: > 100 µM (inactive)
- GI50 [44]: > 100 µM (inactive)
- GI50 [45]: > 100 µM (inactive)
- GI50 [46]: 54.1 µM (inactive)
- GI50 [47]: > 100 µM (inactive)
- GI50 [48]: > 100 µM (inactive)
- GI50 [49]: > 100 µM (inactive)
- GI50 [50]: > 100 µM (inactive)
- GI50 [51]: > 100 µM (inactive)
- GI50 [52]: > 100 µM (inactive)

SMILES: Clc1ccc(C2=NOC(C3CCCCC3)C2)cc1 (stereo not drawn)
- GI50 [1]: > 100 µM (inactive)
- GI50 [2]: > 100 µM (inactive)
- GI50 [3]: > 100 µM (inactive)
- GI50 [4]: > 100 µM (inactive)
- GI50 [6]: > 100 µM (inactive)
- GI50 [53]: > 100 µM (inactive)
- GI50 [7]: > 100 µM (inactive)
- GI50 [8]: > 100 µM (inactive)
- GI50 [9]: > 100 µM (inactive)
- GI50 [11]: > 100 µM (inactive)
- GI50 [12]: > 100 µM (inactive)
- GI50 [13]: > 100 µM
- GI50 [14]: > 100 µM (inactive)
- GI50 [15]: > 100 µM (inactive)
- GI50 [16]: > 100 µM (inactive)
- GI50 [17]: > 100 µM (inactive)
- GI50 [18]: > 100 µM (inactive)
- GI50 [19]: > 100 µM (inactive)
- GI50 [20]: > 100 µM (inactive)
- GI50 [22]: > 100 µM (inactive)
- GI50 [24]: > 100 µM (inactive)
- GI50 [25]: > 100 µM (inactive)
- GI50 [26]: > 100 µM (inactive)
- GI50 [27]: > 100 µM (inactive)
- GI50 [28]: > 100 µM (inactive)
- GI50 [29]: > 100 µM (inactive)
- GI50 [30]: > 100 µM (inactive)
- GI50 [31]: > 100 µM (inactive)
- GI50 [32]: > 100 µM (inactive)
- GI50 [33]: > 100 µM (inactive)
- GI50 [34]: > 100 µM (inactive)
- GI50 [35]: > 100 µM (inactive)
- GI50 [36]: > 100 µM (inactive)
- GI50 [37]: > 100 µM (inactive)
- GI50 [38]: > 100 µM (inactive)
- GI50 [39]: > 100 µM (inactive)
- GI50 [40]: > 100 µM (inactive)
- GI50 [41]: > 100 µM (inactive)
- GI50 [42]: > 100 µM (inactive)
- GI50 [43]: > 100 µM (inactive)
- GI50 [44]: > 100 µM (inactive)
- GI50 [54]: > 100 µM (inactive)
- GI50 [46]: > 100 µM (inactive)
- GI50 [47]: > 100 µM (inactive)
- GI50 [55]: > 100 µM (inactive)
- GI50 [48]: > 100 µM (inactive)
- GI50 [49]: > 100 µM (inactive)
- GI50 [56]: > 100 µM (inactive)
- GI50 [50]: > 100 µM (inactive)
- GI50 [51]: > 100 µM (inactive)
- GI50 [52]: > 100 µM (inactive)
